Drawing on publication PMC1802613 (Nucleic Acids Research, 2006), this text covers Kd for one molecule.

Each structure is given as a SMILES string.

The target of this assay is M-PMV NC-dUTPase (Mason-Pfizer monkey virus, UniProt P07570). The experiment in a line: isothermal titration calorimetry. The class given is binding. (In general: Isothermal titration calorimetry measures the heat released or taken up as one component is titrated into another.)
Chain of M-PMV NC-dUTPase (P07570 526-759): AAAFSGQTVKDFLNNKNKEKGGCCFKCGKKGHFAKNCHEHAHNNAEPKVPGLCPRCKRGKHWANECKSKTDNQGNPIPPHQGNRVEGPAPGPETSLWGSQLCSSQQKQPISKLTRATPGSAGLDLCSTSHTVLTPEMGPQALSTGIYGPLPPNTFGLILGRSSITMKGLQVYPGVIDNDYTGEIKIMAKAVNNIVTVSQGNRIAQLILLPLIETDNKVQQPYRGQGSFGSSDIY

What is called Kd is the concentration at which binding is half-saturated. `O=c1ccn([C@H]2C[C@H](O)[C@@H](COP(=O)(O)NP(=O)(O)OP(=O)(O)O)O2)c(=O)[nH]1` [α,β-imino dUTP] gave a Kd of 1.2 ± 0.02 µM.
